Measurements reported in US10501482B2, “Compounds for treating spinal muscular atrophy” (Hoffmann-La Roche Inc., priority 2013, dated 2019).
Where a name gives a salt, the structure may show the parent alone.

Key:
[1] = tested on: full length SMN2 minigene mRNA (FL SMN2mini) in HEK293H cells stably transfected with the SMN2-A minigene construct; assay: SMN2 minigene mRNA splicing RT-qPCR assay in cultured cells; type: cell-based; conditions: Homo sapiens, HEK293-H, 24 hours, 7-point concentration curve, concentration giving 1.5-fold FL SMN2mini mRNA vs vehicle, read-out: EC1.5x minigene (EC1.5x concentration for production of full length SMN2 minigene mRNA)
Description: The reverse transcription-quantitative PCR-based (RT-qPCR) assay is used to quantify the level of the full length SMN2 minigene (referred to herein by the term “FL SMN2mini”) mRNA containing SMN2 exon 7 in a HEK293H cell line stably transfected with said minigene and treated with a test compound.
The SMN2-A minigene construct was prepared as described in International Patent Application WO2009/151546A1 page 145 paragraph [00400] to page 147 paragraph [00412](incl. FIG. 1 and FIG. 3 therein).
HEK293H cells stably transfected with the SMN2-A minigene construct (10,000 cells/well) are seeded in 200 μL of cell culture medium (DMEM plus 10% FBS, with 200 μg/mL hygromycin) in 96-well flat-bottom plates and the plate is immediately swirled to ensure proper dispersal of cells and the formation of an even monolayer of cells. Cells are allowed to attach for 6 hours. […] A solution of test compound (1 μL, 200× in DMSO) is added to each cell-containing well and the plate is incubated for 24 hours in a cell culture incubator (37° C., 5% CO2, 100% relative humidity). 2 replicates are prepared for each test compound concentration. The cells are then lysed in the Cells-To-Ct lysis buffer and the lysate is stored at −80° C.
Full length SMN2-A minigene and GAPDH mRNA are quantified using the primers and probes referenced in Table 1. Primer SMN Forward A (SEQ ID NO.1) hybridizes to a nucleotide sequence in exon 7 (nucleotide 22 to nucleotide 40), primer SMN Reverse A (SEQ ID NO.2) hybridizes to a nucleotide sequence in the coding sequence of Firefly luciferase, SMN Probe A (SEQ ID NO.3) hybridizes to a nucleotide sequence in exon 7 (nucleotide 50 to nucleotide 54) and exon 8 (nucleotide 1 to nucleotide 21). The combination of these three oligonucleotides detects only SMN1 or SMN2 minigenes (RT-qPCR) and will not detect endogenous SMN1 or SMN2 genes.
The SMN forward and reverse primers are used at final concentrations of 0.4 μM. The SMN probe is used at a final concentration of 0.15 μM. The GAPDH primers are used at final concentrations of 0.2 μM and the probe at 0.15 μM.
The SMN2-minigene GAPDH mix (15 μL total volume) is prepared by combining 7.5 μL of 2×RT-PCR buffer, 0.4 μL of 25×RT-PCR enzyme mix, 0.75 μL of 20×GAPDH primer-probe mix, 4.0075 μL of water, 2 μL of 10-fold diluted cell lysate, 0.06 μL of 100 μM SMN forward primer, 0.06 μL of 100 μM SMN reverse primer, and 0.225 μL of 100 μM SMN probe.
PCR is carried out at the following temperatures for the indicated time: Step 1: 48° C. (15 min); Step 2: 95° C. (10 min); Step 3: 95° C. (15 sec); Step 4: 60° C. (1 min); then repeat Steps 3 and 4 for a total of 40 cycles.
Each reaction mixture contains both SMN2-A minigene and GAPDH primers/probe sets (multiplex design), allowing simultaneous measurement of the levels of two transcripts.
The increase in the abundance of the FL SMN2mini mRNA relative to that in cells treated with vehicle control is determined from real-time PCR data using a modified ΔΔCt method (as described in Livak and Schmittgen, Methods, 2001, 25:402-8). The amplification efficiency E is calculated from the slope of the amplification curve for FL SMN2mini and GAPDH individually. The abundance of FL SMN2mini and GAPDH mRNA are then calculated as (1+E)^−Ct, where Ct is the threshold value for each amplicon. The abundance of FL SMN2mini mRNA is normalized to GAPDH mRNA abundance. The normalized FL SMN2mini mRNA abundance from test compound-treated samples is then divided by normalized FL SMN2mini mRNA abundance from vehicle-treated cells to determine the level of FL SMN2mini mRNA relative to vehicle control.
Table 2 provides EC1.5x concentrations for production of full length SMN2 minigene mRNA that was obtained from the 7-point concentration data generated according to the above procedure for particular compounds of the present invention.

[2] = tested on: SMN protein; assay: SMN protein assay (HTRF) in cultured SMA patient fibroblast cells; type: cell-based; conditions: SMA Type 1 human fibroblasts GM03813, 48 hours; for EC1.5x SMN protein (EC1.5x concentration for SMN protein expression): 7-point concentration curve, concentration giving 1.5 times SMN protein vs vehicle; for max. fold increase (maximum fold increase of SMN protein): 7-point concentration data, fold vs vehicle control
Description: The SMN HTRF (homogeneous time resolved fluorescence) assay is used to quantify the level of SMN protein in SMA patient fibroblast cells treated with test compounds.
Cells are thawed and cultured in DMEM-10% FBS for 72 hours. Cells are trypsinized, counted and re-suspended to a concentration of 25,000 cells/mL in DMEM-10% FBS. The cell suspensions are plated at 5,000 cells per well in a 96 well microtiter plate and incubated for 3 to 5 hours. […] 1 μL of test compound solution is transferred to cell-containing wells and cells are incubated for 48 hours in a cell culture incubator (37° C., 5% CO2, 100% relative humidity). Triplicate samples are set up for each test compound concentration. After 48 hours, the supernatant is removed from the wells and 25 μL of the RIPA lysis buffer, containing protease inhibitors, is added to the wells and incubated with shaking at room temperature for 1 hour. 25 μL of the diluent is added and then 35 μL of the resulting lysate is transferred to a 384-well plate, where each well contains 5 μL of the antibody solution (1:100 dilution of anti-SMN d2 and anti-SMN kryptate in SMN reconstitution buffer). The plate is centrifuged for 1 minute to bring the solution to the bottom of the wells, then incubated overnight at room temperature. Fluorescence for each well of the plate at 665 nm and 620 nm is measured on an EnVision multilabel plate reader (Perkin-Elmer).
The normalized fluorescence signal is calculated for each sample, Blank and vehicle control well by dividing the signal at 665 nm by the signal at 620 nm. Normalizing the signal accounts for possible fluorescence quenching due to the matrix effect of the lysate. The ΔF value (a measurement of SMN protein abundance as a percent value) for each sample well is calculated by subtracting the normalized average fluorescence for the Blank control wells from the normalized fluorescence for each sample well, then dividing this difference by the normalized average fluorescence for the Blank control wells and multiplying the resulting value by 100. The ΔF value for each sample well represents the SMN protein abundance from test compound-treated samples. The ΔF value for each sample well is divided by the ΔF value for the vehicle control wells to calculate the fold increase in SMN protein abundance relative to the vehicle control. Table 3 provides EC1.5x concentrations for SMN protein expression that was obtained from the 7-point concentration data generated according to the above procedure for particular compounds of the present invention.
Table 4 provides the maximum fold increase of SMN protein that was obtained from the 7-point concentration data generated according to the above procedure for particular compounds of the present invention

Structure (SMILES)	EC (1.5-fold) [1] [µM]	EC1.5x SMN protein (EC1.5x concentration for SMN protein expression) [2] [µM]	max. fold increase (maximum fold increase of SMN protein) [2]
Cc1cn2cc(NC(=O)c3ncc(N4CCNC(C)C4)cc3F)cc(Cl)c2n1 (racemic) [Example 56, rac-N-(8-chloro-2-methylimidazo[1,2-a]pyridin-6-yl)-3-fluoro-5-(3-methyl-piperazin-1-yl)-picolinamide dihydrochloride]	0.017	0.07	1.7299
Cc1cn2cc(NC(=O)c3c(F)cc(N4CCNC(C)C4)cc3F)cc(Cl)c2n1 (racemic) [Example 57, rac-N-(8-chloro-2-methylimidazo[1,2-a]pyridin-6-yl)-2,6-difluoro-4-(3-methylpiperazin-1-yl)benzamide trihydrochloride]	0.0262	1.7363	1.578
COc1nc(N2CCNC(C)C2)ccc1C(=O)Nc1cc(F)c2nc(C)cn2c1 (racemic) [Example 74, rac-N-(8-fluoro-2-methylimidazo[1,2-a]pyridin-6-yl)-2-methoxy-6-(3-methylpiperazin-1-yl)nicotinamide]	0.0161	0.1524	1.709
COc1cc(N2CCNC(C)C2)ncc1C(=O)Nc1cc(F)c2nc(C)cn2c1 (racemic) [Example 76, rac-N-(8-fluoro-2-methylimidazo[1,2-a]pyridin-6-yl)-4-methoxy-6-(3-methylpiperazin-1-yl)nicotinamide]	0.0187	0.1629	1.7274
Cc1cn2cc(NC(=O)c3ccc(N4CCN(C)C(C)C4)nc3)ccc2n1 (racemic) [Example 82, rac-6-(3,4-dimethylpiperazin-1-yl)-N-(2-methylimidazo[1,2-a]pyridin-6-yl)nicotinamide]	0.371	0.7698	1.7306
Cc1cn2cc(NC(=O)c3ccc(N4CCNCC4)cc3)nc2c(C)n1 [Example 1, N-(6,8-dimethylimidazo[1,2-a]pyrazin-2-yl)-4-(piperazin-1-yl)benzamide]	0.0316	0.7747	1.6736
Cc1cn2cc(NC(=O)c3ccc(N4CCN[C@@H](C)C4)cc3)nc2c(C)n1 [Example 3, N-(6,8-Dimethyl-imidazo[1,2-a]-pyrazin-2-yl)-4-((S)-3-methyl-piperazin-1-yl)-benzamide]	0.552	1.47	1.7558
Cc1cn2cc(NC(=O)c3ccc(N4CCN(C)CC4)cc3F)nc2c(C)n1 [Example 4, N-(6,8-dimethyl-imidazo[1,2-a]-pyrazin-2-yl)-2-fluoro-4-(4-methylpiperazin-1-yl)benzamide]	0.232	0.5614	1.769
Cc1cn2cc(NC(=O)c3ccc(N4CCN(C)CC4)nc3)nc2c(C)n1 [Example 6, N-(6,8-dimethyl-imidazo[1,2-a]-pyrazin-2-yl)-6-(4-methyl-piperazin-1-yl)nicotinarnide]	0.233	0.5305	1.8047
CCN1CCN(c2ccc(C(=O)Nc3cn4cc(C)nc(C)c4n3)cn2)CC1 [Example 8, N-(6,8-dimethyl-imidazo[1,2-a]-pyrazin-2-yl)-6-(4-ethyl-piperazin-1-yl)nicotinamide]	0.201	0.5175	1.7677
